We go through 17 compounds from patent publication US11414450B1, “Aminoglycosides and uses thereof” (REVAGENIX, INC., priority 2017, dated 2022).

Molecules are shown by their SMILES. pIC50: −log10 of the molar value. In brackets after ≈: the same amount, converted by molar mass.

Broadly, the pIC50 is the IC50 on a negative log10 scale, so that one unit is a factor of ten. Low readings indicate a high IC50, high ones a low IC50. The term MIC denotes the least concentration at which growth counts as inhibited.

Assay [1] has as its system P. aeruginosa efflux parent. The experiment in a line: MIC broth microdilution, P. aeruginosa efflux parent strain. The format is cell-based. The following applies: for MIC: Pseudomonas aeruginosa, P. aeruginosa efflux parent strain, read-out: Geometric Mean MIC values, P. aeruginosa efflux parent. On the procedure: (§1) Minimum inhibitory concentrations for the example compounds herein are determined by the broth microdilution method in accordance with the Clinical and Laboratory Standards Institute (CLSI) guidelines. In brief, organism suspensions are adjusted to a 0.5 McFarland standard to yield a final inoculum between 3×10^5 and 7×10^5 colony-forming units (CFU)/mL. Compound dilutions and inocula are made in sterile, cation adjusted Mueller-Hinton Broth (Beckton Dickinson). The inoculum is prepared by suspension of a colony from an agar plate that is prepared the previous day. Bacteria are suspended in sterile saline and added to each assay plate to obtain a final concentration of 5×10^5 CFU/mL. An inoculum volume of 100 μL is added to wells containing 100 μL of broth with 2-fold serial dilutions of the compound. All inoculated microdilution trays are incubated in ambient air at 35° C. for 18-24 hours. Following incubation, the lowest concentration of the compound that prevents visible growth (OD 600 nm<0.05) is recorded as the MIC. […] Performance of the assay is monitored by the use of laboratory quality-control strains and a compound with a defined MIC spectrum (such as levofloxacin), in accordance with CLSI guidelines. Compounds are tested against multiple microbiologic panels. Panels include: 1) a multi-species primary screening panel that includes multiple defined AG-R mechanisms; 2) a panel of isogenic strains carrying different common mechanisms of AG-R that allows characterization of the SAR for AMEs, RMTs, and entry and efflux resistance mechanisms; and 3) panels of recent clinical isolates selected from Phase 3 studies and ongoing global surveillance.

The test system of assay [2] is P. aeruginosa Δefflux (MexAB-OprM, MexCD-OprJ, MexEF-OprN knocked out). The assay can be described thus: MIC broth microdilution, P. aeruginosa Δefflux strain. In kind it is cell-based. On the procedure: as §1
A general note: Dilution methods test growth across graded concentrations, often in twofold steps.

Another assay relates to P. aeruginosa ATCC 27853. The assay can be described thus: MIC broth microdilution, P. aeruginosa ATCC 27853. The format is cell-based. The following applies: for MIC: Pseudomonas aeruginosa, ATCC27853, P. aeruginosa ATCC 27853, contains aph(3′)-IIb, read-out: Geometric Mean MIC values, P. aeruginosa ATCC 27853. On the procedure:
as §1

The next assay relates to translation. The assay can be described thus: Translation Inhibition Assay. In kind it is biochemical. An excerpt:
Biological Example 2: Translation Inhibition Assay

The next assay has as its system E. coli ATCC 25922. The assay can be described thus: Minimum inhibitory concentration (broth microdilution, CLSI), E. coli ATCC 25922. The format is cell-based. The following applies: Table 1; geometric mean. The method, then:
as §1

The next assay concerns E. coli efflux parent. The experiment in a line: MIC broth microdilution, E. coli efflux parent strain. The following applies: Table 1; geometric mean. The format is cell-based. On the procedure: as §1
Assay [3] deals with E. coli Δefflux (tolC efflux pump knocked-out). The experiment in a line: MIC broth microdilution, E. coli Δefflux strain (tolC knocked out). The format is cell-based. The following applies: Table 1. The method, then:
as §1

Setting [4] is: Table 2, MexEF-OprN efflux pumps knocked out.
Where [5] appears, read: Table 2, strain contains aph(3′)-IIb.
Setting [6] is: P. aeruginosa Δefflux, MexEF-OprN efflux pumps knocked out.

In the case of `NC[C@@H]1O[C@H](O[C@H]2[C@@H](O)[C@H](O[C@@H]3[C@@H](O)[C@H](N)C[C@H](N)[C@H]3O[C@H]3O[C@H](CN)[C@H](O)[C@H](F)[C@H]3N)O[C@@H]2CO)[C@H](N)[C@@H](O)[C@@H]1O`, in assay [1] (Table 2), the “Geometric Mean MIC values, P. aeruginosa efflux parent” value came out at 2 mg/L. Moreover, in assay [2] (setting [4]), the “Geometric Mean MIC values, P. aeruginosa Δefflux” value is recorded as 0.5 mg/L. In the assay with P. aeruginosa ATCC 27853 (setting [5]), the “Geometric Mean MIC values, P. aeruginosa ATCC 27853” value is 1 mg/L. Besides, the pIC50 in the assay with translation (Table 2) was 7.74.
Taken in the same sequence, the figures for `NCC1OC(OC2C(CO)OC(OC3C(O)C(N)CC(N)C3OC3OC(CN)C(O)C(F)C3O)C2O)C(N)C(O)C1O` (centres unmarked) [drawing 883] were 4 mg/L, 0.5 mg/L, 2 mg/L and 7.62.
Regarding `NCC1OC(OC2C(N)CC(N)C(O)C2OC2OC(CO)C(OC3OC(CN)C(O)C(O)C3N)C2O)C(N)CC1O` (centres unmarked) [drawing 880, reference compound], the “Geometric Mean MIC values, P. aeruginosa efflux parent” value in assay [1] (Table 2) was 0.5 mg/L. Besides, the “Geometric Mean MIC values, P. aeruginosa Δefflux” value in assay [2] (setting [4]) is 0.25 mg/L. Also, in the assay with P. aeruginosa ATCC 27853 (setting [5]), the “Geometric Mean MIC values, P. aeruginosa ATCC 27853” value is listed as 0.25 mg/L. Besides, the pIC50 in the assay with translation (Table 2) was 8.07.
As to `CCC(N)C1CCC(N)C(OC2C(N)CC(N)C(O)C2OC2OC(CO)C(OC3OC(CN)C(O)C(O)C3N)C2O)O1` (centres unmarked) [drawing 852], the “Geometric Mean MIC values, E. coli ATCC 25922” value in the assay on E. coli ATCC 25922 came out at 1 mg/L. The “Geometric Mean MIC values, E. coli efflux parent” value with E. coli efflux parent is 2 mg/L. In addition, the “Geometric Mean MIC values, P. aeruginosa efflux parent” value in assay [1] (Table 1, geometric mean) stood at 2 mg/L. Besides, in assay [2] (Table 1, MexEF-OprN efflux pumps knocked out), the “Geometric Mean MIC values, P. aeruginosa Δefflux” value amounted to 0.5 mg/L. For the same compound, the “Geometric Mean MIC values, P. aeruginosa ATCC 27853” value in the assay with P. aeruginosa ATCC 27853 (Table 1, geometric mean) amounted to 1 mg/L. Also, the “Geometric Mean MIC values, E. coli Δefflux” value in assay [3] amounted to 1 mg/L. Moreover, in the assay on translation (Table 1), the pIC50 is 7.59.
With `CCC(N)C1CCC(N)C(OC2C(N)CC(N)C(O)C2OC2OC(CO)C(OC3OC(CN)C(O)C(O)C3N)C2O)O1` (centres unmarked) [drawing 876], the “Geometric Mean MIC values, P. aeruginosa efflux parent” value in assay [1] (Table 2) turned out to be 2 mg/L. For the same compound, the “Geometric Mean MIC values, P. aeruginosa Δefflux” value in assay [2] (setting [4]) is 0.5 mg/L. In the assay on P. aeruginosa ATCC 27853 (setting [5]), the “Geometric Mean MIC values, P. aeruginosa ATCC 27853” value is recorded as 1.4 mg/L. Further, in the assay on translation (Table 2), the pIC50 was 7.49.
Taken in the same sequence, the figures for `NCC1OC(OC2C(CO)OC(OC3C(O)C(N)CC(N)C3OC3OC(CN)C(O)C(F)C3N)C2O)C(N)C(O)C1O` (centres unmarked) [drawing 882] were 2 mg/L, 0.5 mg/L, 1 mg/L and 8.00.
Taken in the same sequence, the figures for `NC[C@@H]1O[C@H](O[C@H]2[C@@H](O)[C@H](O[C@@H]3[C@@H](O)[C@H](N)C[C@H](N)[C@H]3O[C@H]3O[C@H](CN)C(F)(F)[C@H](O)[C@H]3N)O[C@@H]2CO)[C@H](N)[C@@H](O)[C@@H]1O` were 8 mg/L, 1 mg/L, 64 mg/L and 7.89.
Taken in the same sequence, the figures for `CC(N)C1CCC(N)C(OC2C(N)CC(N)C(O)C2OC2OC(CO)C(OC3OC(CN)C(O)C(O)C3N)C2O)O1` (centres unmarked) [drawing 873] were 1.2 mg/L, 0.42 mg/L, 0.84 mg/L and 7.92.
Turning to `NCC1OC(OC2C(CO)OC(OC3C(O)C(N)CC(N)C3OC3OC(C4(N)CC4)CCC3N)C2O)C(N)C(O)C1O` (centres unmarked) [drawing 875], the “Geometric Mean MIC values, P. aeruginosa efflux parent” value in assay [1] (Table 2) was 2 mg/L. For the same compound, the “Geometric Mean MIC values, P. aeruginosa Δefflux” value in assay [2] (setting [4]) is listed as 0.25 mg/L. Further, the “Geometric Mean MIC values, P. aeruginosa ATCC 27853” value with P. aeruginosa ATCC 27853 (setting [5]) is 2 mg/L. This compound also showed a negative-log IC50 (pIC50) in the assay with translation (Table 2) of 8.12.
In the case of `NCC1CCC(N)C(OC2C(N)CC(N)C(O)C2OC2OC(CO)C(OC3OC(CN)C(O)C(O)C3N)C2O)O1` (centres unmarked) [drawing 872, reference compound], in assay [1] (Table 2), the “Geometric Mean MIC values, P. aeruginosa efflux parent” value turned out to be 0.73 mg/L. Further, the “Geometric Mean MIC values, P. aeruginosa Δefflux” value in assay [2] (setting [4]) stood at 0.4 mg/L. The “Geometric Mean MIC values, P. aeruginosa ATCC 27853” value with P. aeruginosa ATCC 27853 (setting [5]) is listed as 0.53 mg/L. This compound had a pIC50 in the assay on translation (Table 2) of 8.00.
As for `NC[C@@H]1CC[C@@H](N)[C@@H](O[C@@H]2[C@@H](N)[C@H](O)[C@@H](N)[C@H](O)[C@H]2O[C@@H]2O[C@H](CO)[C@@H](O[C@H]3O[C@@H](CN)[C@@H](O)[C@H](O)[C@H]3N)[C@H]2O)O1` [drawing 890], the MIC in assay [1] was 1 mg/L (≈ 1.67 µM); in the assay with P. aeruginosa ATCC 27853, 0.5 mg/L (≈ 0.835 µM). Moreover, in assay [2] (setting [6]), the “Geometric Mean MIC values, P. aeruginosa Δefflux” value came to 0.25 mg/L. In addition, in the assay on translation (translation inhibition assay), the pIC50 is 8.10.
On to `CCC(N)C1CCC(N)C(OC2C(N)CC(N)C(O)C2OC2OC(CO)C(OC3OC(CN)C(O)C(O)C3N)C2O)O1` (centres unmarked) [drawing 877], for which the “Geometric Mean MIC values, P. aeruginosa efflux parent” value in assay [1] (Table 2) was 2 mg/L. Also, the “Geometric Mean MIC values, P. aeruginosa Δefflux” value in assay [2] (setting [4]) is 0.5 mg/L. Also, the “Geometric Mean MIC values, P. aeruginosa ATCC 27853” value in the assay on P. aeruginosa ATCC 27853 (setting [5]) is recorded as 1 mg/L. Moreover, in the assay on translation (Table 2), the pIC50 was 7.59.
On the same counts, the results for `NCC1OC(OC2C(CO)OC(OC3C(O)C(N)CC(N)C3OC3OC(CN)C(O)C(F)C3N)C2O)C(N)C(O)C1O` (centres unmarked) [drawing 884] are 8 mg/L, 2 mg/L, 4 mg/L and 7.00.
Taken in the same sequence, the figures for `NC[C@@H]1O[C@H](O[C@H]2[C@@H](O)[C@H](O[C@@H]3[C@@H](O)[C@H](N)C[C@H](N)[C@H]3O[C@H]3O[C@H](CN)[C@@H](O)[C@H](O)[C@H]3N)O[C@@H]2CO)[C@H](N)[C@@H](O)[C@@H]1O` [drawing 881, neomycin, reference compound] were 6.8 mg/L, 2.2 mg/L, 1 mg/L and 8.14.
For the compound `CO[C@@H]1[C@@H](O[C@@H]2O[C@H](CO)[C@@H](O[C@H]3O[C@@H](CN)[C@@H](O)[C@H](O)[C@H]3N)[C@H]2O)[C@H](O[C@H]2O[C@H](CN)CC[C@H]2N)[C@@H](N)C[C@H]1N` [drawing 891], the minimal inhibitory concentration (MIC) (in assay [1]; in the assay on P. aeruginosa ATCC 27853) was 1 mg/L (≈ 1.68 µM) each time. For the same compound, the “Geometric Mean MIC values, P. aeruginosa Δefflux” value in assay [2] (setting [6]) stood at 0.25 mg/L. For the same compound, in the assay on translation (translation inhibition assay), the pIC50 is 8.24.
With `NC[C@@H]1O[C@H](O[C@H]2[C@@H](O)[C@H](O[C@@H]3[C@@H](O)[C@H](N)C[C@H](N)[C@H]3O[C@H]3O[C@H](CN)[C@@H](O)C(F)(F)[C@H]3N)O[C@@H]2CO)[C@H](N)[C@@H](O)[C@@H]1O`, the “Geometric Mean MIC values, P. aeruginosa efflux parent” value in assay [1] (Table 2) came to 8 mg/L. In addition, in assay [2] (setting [4]), the “Geometric Mean MIC values, P. aeruginosa Δefflux” value is 1 mg/L. In the assay on P. aeruginosa ATCC 27853 (setting [5]), the “Geometric Mean MIC values, P. aeruginosa ATCC 27853” value stood at 4 mg/L. Moreover, in the assay on translation (Table 2), the negative logarithm of the IC50 (pIC50) is 7.21.
Taken in the same sequence, the figures for `CC(N)C1CCC(N)C(OC2C(N)CC(N)C(O)C2OC2OC(CO)C(OC3OC(CN)C(O)C(O)C3N)C2O)O1` (centres unmarked) [drawing 874] were 4 mg/L, 0.5 mg/L, 2 mg/L and 7.85.
